Measured values taken from ChEMBL document CHEMBL1201862, “PubChem BioAssay data set” (2004).
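Assay format: 96-well plates, 48-hour exposure. GI50 is the concentration that inhibits growth by half.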 The source made the active and inactive calls. Cut-off read from the data, not from the text of the source: active = GI50 up to about 1.1 µM and inactive = higher.

Legend:
Assay in all cases: NCI-60 cell line screen, 48 h
LXFL 529 = system: LXFL 529
U-251 = system: U-251
SK-MEL-5 = system: SK-MEL-5
NCI-H522 = system: NCI-H522
EKVX = system: EKVX
M14 = system: M14
K562 = system: K562
OVCAR-4 = system: OVCAR-4
TK-10 = system: TK-10
UACC-257 = system: UACC-257
HCC 2998 = system: HCC 2998
RPMI-8226 = system: RPMI-8226
OVCAR-5 = system: OVCAR-5
SK-OV-3 = system: SK-OV-3
NCI-H460 = system: NCI-H460
SR = system: SR
MDA-MB-231 = system: MDA-MB-231
MDA-N = system: MDA-N
NCI-H226 = system: NCI-H226
T47D = system: T47D

Measured: GI50

O=C1c2ccccc2C2(Br)C(=O)c3ccccc3C12 (centres undefined)
inactive: LXFL 529 > 100 µM | U-251 > 100 µM | SK-MEL-5 > 100 µM | NCI-H522 > 100 µM | EKVX > 100 µM | M14 > 100 µM | K562 > 100 µM | OVCAR-4 > 100 µM | TK-10 > 100 µM | UACC-257 > 100 µM | HCC 2998 > 100 µM | RPMI-8226 > 100 µM | OVCAR-5 > 100 µM | SK-OV-3 > 100 µM | NCI-H460 > 100 µM

Cc1csc2n(C)c(=O)c3ccccc3[n+]12
inactive: U-251 > 100 µM | SK-MEL-5 98.4 µM | SR > 100 µM | NCI-H522 > 100 µM | EKVX > 100 µM | M14 > 100 µM | K562 > 100 µM | OVCAR-4 > 100 µM | MDA-MB-231 > 100 µM | MDA-N > 100 µM | TK-10 > 100 µM | UACC-257 > 100 µM | HCC 2998 > 100 µM | RPMI-8226 > 100 µM | NCI-H226 > 100 µM | OVCAR-5 > 100 µM | T47D > 100 µM | SK-OV-3 > 100 µM | NCI-H460 > 100 µM

Cc1nn(C(=O)c2ccccc2O)c2c1C(c1ccccc1)SC(=N)N2 (centres undefined)
inactive: U-251 2.11 µM | SK-MEL-5 3.19 µM | SR 2.42 µM | NCI-H522 3.19 µM | EKVX > 10 µM | M14 1.69 µM | OVCAR-4 1.49 µM | MDA-N 1.2 µM | UACC-257 2.01 µM | HCC 2998 7.69 µM | RPMI-8226 2.97 µM | NCI-H226 1.16 µM | OVCAR-5 6.08 µM | T47D 5.43 µM | SK-OV-3 5.6 µM | NCI-H460 3.64 µM
active: K562 0.413 µM | MDA-MB-231 0.811 µM | TK-10 0.897 µM

COc1ccc(C2c3cc4c(cc3OC3(OC)COC(=O)C23)OCO4)c(OC)c1 (centres undefined)
inactive: U-251 7.35 µM | SK-MEL-5 4.84 µM | SR 4.49 µM | NCI-H522 2.43 µM | EKVX 16.2 µM | M14 3.73 µM | K562 5.08 µM | OVCAR-4 19.1 µM | MDA-MB-231 27.1 µM | MDA-N 1.77 µM | TK-10 32.6 µM | UACC-257 6.24 µM | HCC 2998 30 µM | RPMI-8226 3.56 µM | NCI-H226 25.1 µM | OVCAR-5 54.7 µM | T47D 29.4 µM | SK-OV-3 15.9 µM | NCI-H460 7.14 µM

C1CCN2CC34CC(CC5CCCN(C6CCCC3N6)C54)C2C1 (centres undefined)
inactive: U-251 > 100 µM | SK-MEL-5 > 100 µM | SR > 100 µM | NCI-H522 > 100 µM | EKVX > 100 µM | M14 > 100 µM | K562 > 100 µM | OVCAR-4 > 100 µM | MDA-MB-231 > 100 µM | MDA-N > 100 µM | TK-10 > 100 µM | UACC-257 > 100 µM | HCC 2998 > 100 µM | RPMI-8226 > 100 µM | NCI-H226 > 100 µM | OVCAR-5 > 100 µM | T47D > 100 µM | SK-OV-3 > 100 µM | NCI-H460 > 100 µM

COc1cc(C2c3cc4c(cc3OC(C)(N3CCCC3)C2C)OCO4)cc(OC)c1OC (centres undefined)
inactive: OVCAR-4 9.48 µM | T47D 74.5 µM
active: U-251 0.385 µM | SK-MEL-5 0.247 µM | SR 0.0931 µM | NCI-H522 0.209 µM | EKVX 0.43 µM | M14 0.242 µM | K562 0.197 µM | MDA-MB-231 0.551 µM | MDA-N 0.154 µM | TK-10 0.524 µM | UACC-257 0.437 µM | HCC 2998 0.389 µM | RPMI-8226 0.337 µM | NCI-H226 0.313 µM | OVCAR-5 0.49 µM | SK-OV-3 0.391 µM | NCI-H460 0.473 µM

O=C(CC(=O)N1N=C(N2c3ccccc3Sc3ccccc32)CC1c1ccccc1)Nc1ccc(Cl)cc1 (centres undefined)
inactive: LXFL 529 > 100 µM | U-251 > 100 µM | SK-MEL-5 > 100 µM | EKVX > 100 µM | M14 > 100 µM | K562 > 10 µM | OVCAR-4 > 100 µM | TK-10 > 100 µM | UACC-257 > 100 µM | HCC 2998 > 100 µM | OVCAR-5 > 100 µM | SK-OV-3 > 100 µM | NCI-H460 > 100 µM

CCCC(=O)NC(Nc1ccc(S(=O)(=O)Nc2ccc(OC)nn2)cc1)(C(F)(F)F)C(F)(F)F
inactive: U-251 > 100 µM | SK-MEL-5 > 100 µM | SR > 100 µM | NCI-H522 > 100 µM | EKVX > 100 µM | M14 > 100 µM | K562 > 100 µM | OVCAR-4 > 100 µM | MDA-MB-231 > 100 µM | MDA-N > 100 µM | TK-10 > 100 µM | UACC-257 > 100 µM | HCC 2998 > 100 µM | RPMI-8226 > 100 µM | NCI-H226 > 100 µM | OVCAR-5 > 100 µM | T47D > 100 µM | SK-OV-3 > 100 µM | NCI-H460 > 100 µM

CCCCCCCCCc1c(Cl)nc(Cl)nc1Cl
inactive: U-251 18.9 µM | SK-MEL-5 11.7 µM | SR 2.84 µM | NCI-H522 3.67 µM | EKVX 22.7 µM | M14 3.48 µM | K562 6.68 µM | OVCAR-4 15 µM | MDA-MB-231 12.3 µM | MDA-N 14.7 µM | TK-10 23 µM | UACC-257 19.8 µM | HCC 2998 3.74 µM | RPMI-8226 14.6 µM | NCI-H226 5.62 µM | OVCAR-5 21 µM | T47D 10.1 µM | SK-OV-3 20.4 µM | NCI-H460 18.2 µM

CN(C)c1ccc(-c2nc(-c3cc4c(ccc5ccccc54)oc3=O)cs2)cc1
inactive: U-251 > 100 µM | SK-MEL-5 > 100 µM | SR > 100 µM | NCI-H522 > 100 µM | EKVX > 100 µM | M14 > 100 µM | K562 > 100 µM | OVCAR-4 > 100 µM | MDA-MB-231 > 100 µM | MDA-N > 100 µM | TK-10 > 100 µM | UACC-257 > 100 µM | HCC 2998 > 100 µM | RPMI-8226 > 100 µM | NCI-H226 > 100 µM | OVCAR-5 > 100 µM | T47D > 100 µM | SK-OV-3 > 100 µM | NCI-H460 > 100 µM

COC(=O)C(CCSC)NC(=O)CSc1nnc(COc2ccc(Cl)cc2)n1-c1ccccc1 (centres undefined)
inactive: U-251 17.1 µM | SK-MEL-5 18.5 µM | SR 8.53 µM | NCI-H522 3.77 µM | EKVX 27.6 µM | M14 18.7 µM | K562 24.5 µM | OVCAR-4 16.1 µM | MDA-MB-231 17 µM | MDA-N 18.9 µM | TK-10 19.1 µM | UACC-257 16.9 µM | HCC 2998 7.52 µM | NCI-H226 21.4 µM | OVCAR-5 19.5 µM | T47D 27.5 µM | SK-OV-3 14.5 µM | NCI-H460 14.4 µM
active: RPMI-8226 0.883 µM
